Measurements from patent US20050256179A1, “Selective pharmacologic inhibition of protein trafficking and related methods of treating human diseases” (priority 2003, published 2005).
Values after ≈ are worked out from the molar mass of the structure shown.

How the values were obtained:
[1] = test system: T cells from mouse spleen and human PBL; assay: T cell cytokine responses in vitro (Luminex beads); type: cell-based
Source text: These series of compounds were initially identified on the basis of their IgE-blocking activity in an ex vivo IgE response protocol (FIG. 2), and the biological activity of all analogs are characterized on the basis of their activity in this assay. Activity in the ex vivo assay is corroborated in the in vitro assay of B cell response to 1L-4/anti-CD40 Ab-stimulated IgE in human PBL (FIG. 3) using standard procedures, and mouse splenic B cells (not shown). Drug action on T cells was shown by testing T cell cytokine responses to various stimuli in vitro. The response of a cadre of cytokines and chemokines to several alternative stimuli was tested in T cells from both mouse spleen and human PBL. T cells were isolated from murine spleen and cultured for 16 hours in the presence of stimulus+/−AVP 13358. Supernatants were quantified for cytokines using Luminex beads. All cytokines achieved levels of at least 200 pg/ml and 10-fold higher than background (FIG. 4). T cells were isolated from donor PBL and cultured for 16-36 hours in the presence of Phytohemaglutin (PHA, 5 μg/ml) and ConA (5 μg/ml)+/−AVP 13358. Supernatants were quantified for cytokines using Luminex beads (FIG. 5). […] Total protein was assessed by the SRB assay, as adopted for many of the proliferation experiments outline below.

[2] = test system: 60 kinase assays; assay: Kinase and biochemical assay screens (Upstate panel); conditions: concentrations of less than 1 μg/ml; 1 μM in 60 kinase assays
Source text: In an effort to understand how these compounds might be acting at the cellular and molecular level, several screens of drug activity were initiated. The first 2 screens were designed to test the activity of drug on certain binding events and the activity of a variety of enzymes in vitro (FIGS. 14 and 15).

[3] = test system: CD23 and the IL-4 receptor on murine B cells and human monocytes; assay: Induction of CD23 and IL-4 receptor expression; type: cell-based, mouse; conditions: murine B cells and human monocytes in vitro
[4] = test system: rat basophilic leukemia (RBL) cells; assay: Degranulation of RBL cells; type: cell-based; conditions: induced with PMA/ionomycin or IgE-antigen complexes, not shown
Source text: The proposed mechanism of the AVP compounds on intracellular protein transit also allows certain predictions as to other effects and non-effects that these compounds might share. For example, inhibition of vesicle fusion or budding between the ER and golgi should not affect exocytosis as would be expected of a post-golgi active compound such as Monensin. AVP 893 has minimal effects on the expression of proteins involved in exocytosis, particularly VAMP, SNAP23 (non-neuronal cells), and SNAP25 (neuronal cells).

[5] = test system: GS28; assay: GS28 expression by Western blotting; type: cell-based; conditions: MOLT4, Hs578T, H-460, overnight
Description: The culture medium was removed by vacuuming (for attached cells) or by low speed centrifugation (for suspension cells) for 5-7 minutes at room temperature. The cells were wasedh twith PBS, spun at 1200 rpm and the cell pellets were kept on ice. 300 μl/2.0×10^7 cells of ice cold lysis buffer was added with freshly added protease inhibitors. Cell pellets were gently resuspended and incubated on ice for at least 30 min, vortexed a few times during incubation. Cell lysate was spun at 14,000 rpm for 2-5 min at 4° C. The supernatant was transferred to a new microfuge tube and the pellet was discarded. An aliquot of sample was mixed with an equal volume of 2× sample buffer (InVitrogen), and stored at −80° C. Protein concentration was determined by using “BCA protein assay reagent kit” from Pierce.
Protein samples (in sample buffer) were boiled for 1-3 minutes and put on ice. Same amount of protein were loaded on the NuPage gel (InVitrogen). After the electrophoresis was complete, proteins were transferred from the gel to a PVDF membrane using the electro-blotting apparatus from InVitrogen; the voltage was set to 25 for 2-3 hr. Block non-specific binding by incubating membrane with 5% milk (in PBS, 0.1% tween 20) for at least 30 min at room temperature or overnight at 4° C. The blocked membrane was incubated with primary antibody (See TABLE 2) diluted in 5% milk for 1 hour at room temperature. Optimal antibody dilution depends on the company, the amount of protein. Dilutions of 1:1000 were generally used for the primary antibodies from Santa Cruz. The membrane was washed with PBS, 0.1% tween 3-4 times 5 mins. The membrane was incubated for 30-60 minutes at room temperature with horseradish peroxidase (HRP) conjugated secondary antibody diluted in 5% milk. We usually used 1:4000 dilution for the secondary antibody from Santa Cruz. The membrane was washed 3-4 times with PBS, 0.1% tween, each time 15 minutes. The detection solutions A and B were mixed in a ratio 40:1 and Pipetted onto the membrane, and incubated for 5 min at RT. A sheet of Hyper film ECL was placed on the top of the membrane in the dark and exposed for 1 min, or adjust accordingly.
To further examine the putative protein trafficking effects of AVP 893, other proteins in this pathway were tested in vitro in B16 and other cell lines. The effect of AVP 893 on cellular proteins was corroborated in B16 cells and extended to include a time-course (FIG. 17). B16-F10 tumor cells were seeded in T75 flasks at 20% confluence and cultured overnight. AVP 893 (100 ng/ml) was added to several flasks and one flask of cells was harvested at several time points following addition of compound. Lysates were prepared, separated by electrophoresis, and probed with antibody as described above in the general Western blotting protocol. Drug effects on GS28 and nicastrin paralleled each other and were progressively stronger with longer drug incubations. […] Other cell lines were tested for their expression of GS28 and nicastrin and found to respond similarly to drug, although quantitative differences were evident. Tumor cell lines found to respond similarly to AVP 893 include CAK1, SF295, PC3, MOLT4, Neuro2a, and RBL (FIGS. 18, 19, and 20). For the experiment shown in FIG. 18, LOX, CAKI, and 3T3 cell lines were treated as described for FIG. 17. For the results shown in FIG. 19, SF295, PC3, MOLT-4, and Neuro2a cells were treated as described for FIG. 17. For the results shown in FIG. 20, LOX, 3T3, and RBL cell lines were treated with varying concentrations of AVP 893 as described for FIG. 17. The effects on LOX cells were less evident. […] Levels of calnexin, a resident ER protein used as a control, were unchanged in drug-treated cells.

[6] = test system: HCC 1806; assay: Inhibition of tumor cell proliferation in vitro (SRB total protein); type: cell-based; conditions: in-house head-to-head, about 72 hours
Description: (§1) For a typical screening experiment, cells are inoculated into 96 well microtiter plates in 100 μl at plating densities ranging from 5,000 to 40,000 cells/well depending on the doubling time of individual cell lines. After cell inoculation, the microtiter plates are incubated at 37° C., 5% or 10% CO2—depending on the cell line and media—95% air and 100% relative humidity for 24 h prior to addition of experimental drugs. After 24 h, two plates of each cell line are fixed in situ with TCA, to represent a measurement of the cell population for each cell line at the time of drug addition. Following drug addition, the plates are incubated for an additional 48 h at 37° C., 5%/10% CO2, 95% air, and 100% relative humidity. For adherent cells, the assay is terminated by the addition of cold TCA. Cells are fixed in situ by the gentle addition of 50 μl of cold 50% (w/v) TCA (final concentration, 10% TCA) and incubated for 60 minutes at 4° C. The supernatant is discarded, and the plates are washed five times with tap water and air-dried. Sulforhodamine B (SRB) solution (10011) at 0.4% (w/v) in 1% acetic acid is added to each well, and plates are incubated for 10 minutes at room temperature. After staining, unbound dye is removed by washing five times with 1% acetic acid and the plates are air-dried. Bound stain is subsequently solubilized with 10 mM trizma base, and the absorbance is read on an automated plate reader at a wavelength of 515 nm. For suspension cells, the methodology is the same except that the assay is terminated by fixing settled cells at the bottom of the wells by gently adding 50 μl of 80% TCA (final concentration, 16% TCA). Using the seven absorbance measurements [time zero, control growth, and test growth in the presence of drug at the five concentration levels], the percentage growth is calculated at each of the drug concentrations levels.
(§2) Brefeldin A was tested by the NCI for inhibition of tumor cell proliferation in the 60-cell screen. The NCI 60-cell screen was performed essentially as described for FIG. 9. Data available from the NCI database for Brefeldin A was compared with more recent AVP 893 data. […] Several tumor cell lines were cultured in the presence of either AVP 893 or Brefeldin A for about 72 hours before assessing proliferation response by measuring total protein (SRB), as described for FIG. 9. The results of the head-to-head comparisons performed in-house also show substantial variation in the relative proliferative responses of cells to Brefeldin A and AVP 893 in vitro (TABLE 3).

[7] = test system: Hs578T; assay: as above; type: cell-based; conditions: in-house head-to-head, about 72 hours, SRB
Description: as §1, §2

[8] = test system: NCI H-460; assay: as above; type: cell-based; conditions: in-house head-to-head, about 72 hours, SRB
Description: as §1, §2

[9] = test system: MOLT-4; assay: as above; type: cell-based; conditions: in-house head-to-head, about 72 hours, SRB
Description: as §1, §2

[10] = test system: tumor cell lines (NCI 60-cell screening panel); conditions: NCI 60-cell screen, data from the NCI database; cited from earlier work
[11] = test system: Mannosidase II; assay: Mannosidase II immunocytochemistry; type: cell-based; conditions: 1 hr of treatment, immunocytochemistry
Description: GS15, GS28, GPP130, and Mannosidase II, sparing the golgi structural protein GM-130 and having little effect on the Rab GTPase Rab6. Furthermore, these affects were most pronounced following overnight (16-20 hr) incubations with AVP 893, although some affects at early time points were seen. These conclusions were drawn from the western blot analysis (FIG. 29), as well as from the immunocytochemical studies (FIGS. 30-31).
Additional evidence that AVP 893 has unique activity against resident golgi proteins (e.g. Mannosidase II), was found using both shorter durations of drug exposure and immunocytochemistry instead of western blot analysis (FIG. 43).

activity in kinase and biochemical assays [2]	Structure (SMILES)	IL-1 levels ([1]; in vitro)	levels of cytokines including IL-4, IL-5, IL-13 ([1]; stimulated T cells, 16-36 hours)	induction of CD23 and IL-4 receptor [3]	degranulation [4]	GS28 expression [5]	IC50 [6]	IC50 [7]	IC50 [8]	IC50 [9]	concentrations inhibiting proliferation of virtually all cells [10]	Mannosidase II staining pattern [11]
no drug activity was observed	O=C(Nc1ccccn1)c1ccc2[nH]c(-c3ccc(NC(=O)C45C[C@H]6C[C@@H](C4)C[C@@H](C5)C6)cc3)nc2c1 [AVP 13358]	does not affect IL-1 levels	potently suppressed the levels of most cytokines	potently blocked the induction of these receptors	does not inhibit degranulation	–	–	–	–	–	–	–
–	C[C@H]1CCC/C=C/[C@@H]2C[C@H](O)C[C@H]2[C@H](O)/C=C/C(=O)O1 [Brefeldin A, reference compound]	–	–	–	–	variable effects	0.03 µg/mL (≈ 0.107 µM)	0.1 µg/mL (≈ 0.357 µM)	0.005 µg/mL (≈ 0.0178 µM)	0.003 µg/mL (≈ 0.0107 µM)	10 to 100 nM	completely dispersed
